The record followed here is article PMC8781629, “Identification of an Amylomaltase from the Halophilic Archaeon Haloquadratum walsbyi by Functional Metagenomics: Structural and Functional Insights” (Life, 2022).

The experiment addresses T1, Hw-A (H. walsbyi amylomaltase) (Haloquadratum walsbyi, UniProt Q18H55).
T1 construct: gene malQ; full length plus 21 vector residues incl; N-terminal His6 tag (p15TV-L), E. coli Origami (DE3), about 67 kDa, tag not reported cut
Briefly: starch transglycosylation, decrease of starch-iodine absorbance at […] nm. It counts as biochemical. Particulars: acceptor substrate (best of those tested), 0.05%; donor 0.15% starch; 50 mM sodium phosphate pH 7, 1 M NaCl, 40 °C, 1 h.

T1 sequence (Q18H55 entry or part of it): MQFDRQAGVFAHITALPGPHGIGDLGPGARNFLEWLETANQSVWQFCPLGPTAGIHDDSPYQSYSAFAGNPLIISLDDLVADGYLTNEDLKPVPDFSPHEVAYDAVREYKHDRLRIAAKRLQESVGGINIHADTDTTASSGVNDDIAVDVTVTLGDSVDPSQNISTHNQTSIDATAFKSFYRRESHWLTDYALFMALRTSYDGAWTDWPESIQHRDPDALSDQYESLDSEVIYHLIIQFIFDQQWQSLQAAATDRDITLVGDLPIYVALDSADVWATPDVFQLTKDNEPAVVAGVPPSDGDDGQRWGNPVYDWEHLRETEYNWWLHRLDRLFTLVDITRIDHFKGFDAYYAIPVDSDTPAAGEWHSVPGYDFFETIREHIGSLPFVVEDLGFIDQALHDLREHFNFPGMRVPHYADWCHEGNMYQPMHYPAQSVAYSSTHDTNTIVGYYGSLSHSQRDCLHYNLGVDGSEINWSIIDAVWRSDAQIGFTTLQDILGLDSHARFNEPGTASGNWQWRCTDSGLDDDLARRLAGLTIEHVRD

Take `OC[C@H]1O[C@H](O[C@H]2[C@H](O)[C@@H](O)[C@@H](O[C@H]3[C@H](O)[C@@H](O)C(O)O[C@@H]3CO)O[C@@H]2CO)[C@H](O)[C@@H](O)[C@@H]1O` (stereo partly shown) [maltotriose]: the “starch transglycosylation, decrease of starch-iodine absorbance at 620 nm” value was “The assays indicated maltotriose as the best acceptor for starch degradation”.
